Measurements reported in patent publication US7846959B2, “Raf modulators and methods of use” (Exelixis, Inc., priority 2004, dated 2010).

Assays:
c-Raf = c-Raf (Homo sapiens, UniProt P04049); test: Luciferase-coupled chemiluminescence kinase assay (ATP consumption), c-Raf; assay type: biochemical; details: read-out: cRaf-1 IC50
Method: (§1) Tyrosine kinase activity is determined by 1) measurement of kinase-dependent ATP consumption by in the presence of a generic substrate such as […], tyrosine (pEY), by luciferase/luciferin-mediated chemiluminescence or; 2) incorporation of radioactive phosphate derived from ^33P-ATP into a generic substrate which has been adsorbed onto the well surface of polystyrene microtiter plates. Phosphorylated substrate products are quantified by scintillation spectrometry.
(§2) Luciferase-Coupled Chemiluminescence Assay Protocol
(§3) Kinase activity is measured as the percent of ATP consumed following the kinase reaction using luciferase-luciferin-coupled chemiluminescence. Reactions were conducted in 384-well white, medium binding microtiter plates (Greiner). Kinase reactions were initiated by combining test compounds, ATP and kinase in a 20 uL volume. The reaction mixture was incubated at ambient temperature for 3 hrs. For c-Raf, B-Raf, and B-RafV599E, […] of the enzyme was pre-incubated with compound in 20 mM Tris pH 7.5, 10 mM MgCl2, 0.03% TX-100, and 1 mM DTT for 30 minutes at room temperature. Following the kinase reaction, a 20 μL aliquot of luciferase-luciferin mix was added and the chemiluminescence signal measured using a Victor^2 plate reader (Perkin Elmer). The luciferase-luciferin mix contained 50 mM HEPES, pH 7.8, 67 mM oxalic acid (pH 7.8), 5 (or 50) mM DTT, 0.4% Triton X-100, 0.25 mg/mL coenzyme A, 63 μM AMP, 28 μg/mL luciferin and 40,000 units/mL luciferase. Total ATP consumption was limited to 25-60% and the IC50 values correlate well with those determined by radiometric assays.

B-Raf = B-Raf (Homo sapiens, UniProt P15056); test: Luciferase-coupled chemiluminescence kinase assay (ATP consumption), B-Raf; assay type: biochemical; details: read-out: bRaf IC50
Method: as §1, §2, §3

Chain of c-Raf (P04049 whole entry): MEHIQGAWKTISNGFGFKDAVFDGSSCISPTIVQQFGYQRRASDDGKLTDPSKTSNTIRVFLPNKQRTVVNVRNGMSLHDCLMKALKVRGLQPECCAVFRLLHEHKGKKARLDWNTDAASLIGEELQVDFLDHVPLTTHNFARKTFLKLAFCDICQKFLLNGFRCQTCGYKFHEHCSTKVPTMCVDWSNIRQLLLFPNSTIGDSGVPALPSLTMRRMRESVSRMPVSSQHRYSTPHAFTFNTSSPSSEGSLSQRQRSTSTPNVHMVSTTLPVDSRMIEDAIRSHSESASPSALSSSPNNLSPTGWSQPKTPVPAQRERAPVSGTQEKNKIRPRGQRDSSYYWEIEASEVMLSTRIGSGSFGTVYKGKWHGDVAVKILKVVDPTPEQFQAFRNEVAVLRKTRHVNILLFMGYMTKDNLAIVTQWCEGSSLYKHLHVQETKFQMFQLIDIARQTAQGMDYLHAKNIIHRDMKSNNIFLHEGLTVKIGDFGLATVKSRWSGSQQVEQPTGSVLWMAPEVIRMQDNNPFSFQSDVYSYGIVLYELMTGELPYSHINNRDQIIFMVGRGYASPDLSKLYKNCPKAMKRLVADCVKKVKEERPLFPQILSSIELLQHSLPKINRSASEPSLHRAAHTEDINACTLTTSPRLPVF
Chain of B-Raf (P15056 whole entry): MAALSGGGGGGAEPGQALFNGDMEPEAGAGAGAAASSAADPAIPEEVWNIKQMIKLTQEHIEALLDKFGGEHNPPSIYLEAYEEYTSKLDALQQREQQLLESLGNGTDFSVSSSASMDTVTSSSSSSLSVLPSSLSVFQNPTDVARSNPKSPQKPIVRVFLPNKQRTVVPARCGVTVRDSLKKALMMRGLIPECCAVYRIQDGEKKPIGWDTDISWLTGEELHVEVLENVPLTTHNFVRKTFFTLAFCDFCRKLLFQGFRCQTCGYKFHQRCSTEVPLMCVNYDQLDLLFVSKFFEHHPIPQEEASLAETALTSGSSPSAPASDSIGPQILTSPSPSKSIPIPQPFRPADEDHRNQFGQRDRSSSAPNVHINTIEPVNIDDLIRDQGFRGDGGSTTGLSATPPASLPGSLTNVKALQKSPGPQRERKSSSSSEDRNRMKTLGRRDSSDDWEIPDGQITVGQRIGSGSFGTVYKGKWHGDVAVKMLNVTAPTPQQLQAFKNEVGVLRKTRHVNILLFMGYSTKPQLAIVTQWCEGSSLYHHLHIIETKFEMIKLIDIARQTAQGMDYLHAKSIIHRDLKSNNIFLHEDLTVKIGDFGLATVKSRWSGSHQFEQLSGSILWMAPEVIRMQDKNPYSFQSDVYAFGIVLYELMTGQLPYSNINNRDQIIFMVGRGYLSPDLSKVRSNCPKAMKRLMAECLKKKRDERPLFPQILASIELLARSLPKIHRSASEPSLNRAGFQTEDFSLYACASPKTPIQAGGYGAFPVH

SMILES | IC50 (c-Raf) | IC50 (B-Raf)
NC(=O)c1cccc(N2C(=O)c3ccccc3C2(O)c2ccc3c(c2)NC(=O)CO3)c1 (stereo not drawn) [Entry 81, 3-[1-hydroxy-3-oxo-1-(3-oxo-3,4-dihydro-2H-1,4-benzoxazin-6-yl)-1,3-dihydro-2H-isoindol-2-yl]benzamide] | 1000 to 10000 nM | 1000 to 10000 nM
O=C1COc2ccc(C3(O)c4ccccc4C(=O)N3c3cccc(CO)c3)cc2N1 (stereo not drawn) [Entry 82, 6-{1-hydroxy-2-[3-(hydroxymethyl)phenyl]-3-oxo-2,3-dihydro-1H-isoindol-1-yl}-2H-1,4-benzoxazin-3(4H)-one] | 1000 to 10000 nM | 1000 to 10000 nM
O=C1COc2ccc(C3(O)c4ccccc4C(=O)N3c3ccccc3F)cc2N1 (stereo not drawn) [Entry 83, 6-[2-(2-fluorophenyl)-1-hydroxy-3-oxo-2,3-dihydro-1H-isoindol-1-yl]-2H-1,4-benzoxazin-3(4H)-one] | 1000 to 10000 nM | 100 to 1000 nM
CNc1nc2cc(C3(O)c4ccccc4C(=O)N3Cc3ccccc3)ccc2[nH]1 (stereo not drawn) [Entry 84, 3-hydroxy-3-[2-(methylamino)-1H-benzimidazol-5-yl]-2-(phenylmethyl)-2,3-dihydro-1H-isoindol-1-one] | 1000 to 10000 nM | 1000 to 10000 nM
O=C1COc2ccc(C3(O)c4ccccc4C(=O)N3c3cccc(-c4ccccc4)c3)cc2N1 (stereo not drawn) [Entry 85, 6-(2-biphenyl-3-yl-1-hydroxy-3-oxo-2,3-dihydro-1H-isoindol-1-yl)-2H-1,4-benzoxazin-3(4H)-one] | ≥ 10000 nM | ≥ 10000 nM
CN(C)Cc1cccc(N2C(=O)c3ccccc3C2(O)c2ccc3c(c2)NC(=O)CO3)c1 (stereo not drawn) [Entry 86, 6-(2-{3-[(dimethylamino)methyl]phenyl}-1-hydroxy-3-oxo-2,3-dihydro-1H-isoindol-1-yl)-2H-1,4-benzoxazin-3(4H)-one] | 1000 to 10000 nM | 1000 to 10000 nM
O=C1COc2ccc(C3(O)c4ccccc4C(=O)N3c3cc(Cl)cc(Cl)c3)cc2N1 (stereo not drawn) [Entry 87, 6-[2-(3,5-dichlorophenyl)-1-hydroxy-3-oxo-2,3-dihydro-1H-isoindol-1-yl]-2H-1,4-benzoxazin-3(4H)-one] | 1000 to 10000 nM | 1000 to 10000 nM
O=C1COc2ccc(C3(O)c4ccccc4C(=O)N3C3CCNCC3)cc2N1 (stereo not drawn) [Entry 88, 6-(1-hydroxy-3-oxo-2-piperidin-4-yl-2,3-dihydro-1H-isoindol-1-yl)-2H-1,4-benzoxazin-3(4H)-one] | ≥ 10000 nM | ≥ 10000 nM
CN(C)CCOc1cccc(N2C(=O)c3ccccc3C2(O)c2ccc3c(c2)NC(=O)CO3)c1 (stereo not drawn) [Entry 89, 6-[2-(3-{[2-(dimethylamino)ethyl]oxy}phenyl)-1-hydroxy-3-oxo-2,3-dihydro-1H-isoindol-1-yl]-2H-1,4-benzoxazin-3(4H)-one] | ≥ 10000 nM | ≥ 10000 nM
Cc1ccccc1N1C(=O)c2ccccc2C1(O)c1ccc2c(c1)NC(=O)CO2 (stereo not drawn) [Entry 90, 6-[1-hydroxy-2-(2-methylphenyl)-3-oxo-2,3-dihydro-1H-isoindol-1-yl]-2H-1,4-benzoxazin-3(4H)-one] | 1000 to 10000 nM | 1000 to 10000 nM
CN(C(=O)c1ccccc1C(=O)c1ccc2c(c1)NC(=O)CO2)c1ccccc1 [Entry 91, N-methyl-2-[(3-oxo-3,4-dihydro-2H-1,4-benzoxazin-6-yl)carbonyl]-N-phenylbenzamide] | ≥ 10000 nM | ≥ 10000 nM
CCOC1(c2ccc3[nH]c(NC(=O)OC)nc3c2)c2ccccc2C(=O)N1Cc1ccccc1 (stereo not drawn) [Entry 92, methyl {5-[1-(ethyloxy)-3-oxo-2-(phenylmethyl)-2,3-dihydro-1H-isoindol-1-yl]-1H-benzimidazol-2-yl}carbamate] | 100 to 1000 nM | 100 to 1000 nM
COC(=O)Nc1nc2cc(C(=O)c3ccccc3C(=O)OCc3ccccc3)ccc2[nH]1 [Entry 93, Phenylmethyl 2-[(2-{[(methyloxy)carbonyl]amino}-1H-benzimidazol-5-yl)carbonyl]benzoate] | 100 to 1000 nM | 100 to 1000 nM
O=C1c2ccccc2C(O)(c2ccc3[nH]ncc3c2)N1Cc1ccccc1 (stereo not drawn) [Entry 94, 3-hydroxy-3-(1H-indazol-5-yl)-2-(phenylmethyl)-2,3-dihydro-1H-isoindol-1-one] | 100 to 1000 nM | 100 to 1000 nM
O=C1c2ccccc2C(O)(c2ccc3cn[nH]c3c2)N1Cc1ccccc1 (stereo not drawn) [Entry 95, 3-hydroxy-3-(1H-indazol-6-yl)-2-(phenylmethyl)-2,3-dihydro-1H-isoindol-1-one] | ≥ 10000 nM | ≥ 10000 nM
CCOC(=O)Nc1nc2cc(C3(O)c4ccccc4C(=O)N3Cc3ccccc3)ccc2[nH]1 (stereo not drawn) [Entry 96, ethyl {5-[1-hydroxy-3-oxo-2-(phenylmethyl)-2,3-dihydro-1H-isoindol-1-yl]-1H-benzimidazol-2-yl}carbamate] | ≥ 10000 nM | ≥ 10000 nM
CC(C)COC(=O)Nc1nc2cc(C3(O)c4ccccc4C(=O)N3Cc3ccccc3)ccc2[nH]1 (stereo not drawn) [Entry 97, 2-methylpropyl {5-[1-hydroxy-3-oxo-2-(phenylmethyl)-2,3-dihydro-1H-isoindol-1-yl]-1H-benzimidazol-2-yl}carbamate] | 100 to 1000 nM | 100 to 1000 nM
COC(=O)Nc1nc2cc(C3(O)c4ccccc4C(=O)N3Cc3cccs3)ccc2[nH]1 (stereo not drawn) [Entry 98, methyl {5-[1-hydroxy-3-oxo-2-(2-thienylmethyl)-2,3-dihydro-1H-isoindol-1-yl]-1H-benzimidazol-2-yl}carbamate] | < 100 nM | < 100 nM
COC(=O)Nc1nc2cc(C3(O)c4ccccc4C(=O)N3CCc3ccccc3)ccc2[nH]1 (stereo not drawn) [Entry 99, methyl {5-[1-hydroxy-3-oxo-2-(2-phenylethyl)-2,3-dihydro-1H-isoindol-1-yl]-1H-benzimidazol-2-yl}carbamate] | 1000 to 10000 nM | 1000 to 10000 nM
CC(C)(C)n1c(N)nc2cc(C3(O)c4ccccc4C(=O)N3Cc3ccccc3)ccc21 (stereo not drawn) [Entry 100, 3-[2-amino-1-(1,1-dimethylethyl)-1H-benzimidazol-5-yl]-3-hydroxy-2-(phenylmethyl)-2,3-dihydro-1H-isoindol-1-one] | ≥ 10000 nM | ≥ 10000 nM
Nc1nc2cc(C3(O)c4ccccc4C(=O)N3Cc3ccccc3)ccc2[nH]1 (stereo not drawn) [Entry 101, 3-(2-amino-1H-benzimidazol-5-yl)-3-hydroxy-2-(phenylmethyl)-2,3-dihydro-1H-isoindol-1-one] | 1000 to 10000 nM | 1000 to 10000 nM
COC(=O)Nc1nc2cc(C3(O)NC(=O)c4ccccc43)ccc2[nH]1 (stereo not drawn) [Entry 102, methyl [5-(1-hydroxy-3-oxo-2,3-dihydro-1H-isoindol-1-yl)-1H-benzimidazol-2-yl]carbamate] | ≥ 10000 nM | ≥ 10000 nM
COC(C)CCOC(=O)Nc1nc2cc(C3(O)c4ccccc4C(=O)N3Cc3ccccc3)ccc2[nH]1 (stereo not drawn) [Entry 103, 3-(methyloxy)butyl {5-[1-hydroxy-3-oxo-2-(phenylmethyl)-2,3-dihydro-1H-isoindol-1-yl]-1H-benzimidazol-2-yl}carbamate] | < 100 nM | < 100 nM
COC(=O)Nc1nc2cc(C3(O)c4ccccc4C(=O)N3[C@H](C)c3ccccc3)ccc2[nH]1 (stereo partly drawn) [Entry 104, methyl (5-{1-hydroxy-3-oxo-2-[(1R)-1-phenylethyl]-2,3-dihydro-1H-isoindol-1-yl}-1H-benzimidazol-2-yl)carbamate] | < 100 nM | < 100 nM
